Test systems include 786-0 renal; CAKI-1 renal; HS 578T breast; IGROV1 ovarian; MALME-3M melanoma; MCF7 breast; MDA-MB-231 breast; NCI-H522 lung; OVCAR-3 ovarian; OVCAR-5 ovarian; OVCAR-8 ovarian; PC-3 prostate; SF-539 CNS; SK-MEL-28 melanoma; U251 CNS; UO-31 renal; CCRF-CEM leukemia; MOLT-4 leukemia; SR leukemia.
Test in all cases: inhibition of tumour cell growth, NCI panel, 48 h

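Results reflect a 48-hour exposure of cells in 96-well plates to compound at five concentrations. Definition used: TGI = concentration required for complete inhibition of growth.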

For the molecule `NS(=O)(=O)c1cc2c(cc1Cl)NC(CCC(=O)O)=NS2(=O)=O`, the TGI with 786-0 renal, with CAKI-1 renal, with HS 578T breast, in the test with IGROV1 ovarian, in the test with MALME-3M melanoma and in the test on MCF7 breast was greater than 100 µM throughout. Further, the TGI in the test with MDA-MB-231 breast, with NCI-H522 lung, in the test on OVCAR-3 ovarian, in the test on OVCAR-5 ovarian, in the test with OVCAR-8 ovarian and with PC-3 prostate was greater than 100 µM throughout. Also, the TGI in the test on SF-539 CNS, in the test with SK-MEL-28 melanoma, in the test with U251 CNS and in the test on UO-31 renal was greater than 100 µM in each case.
For `CC(=O)Nc1nc(C#N)[nH]c1C#N`, the TGI in the test on 786-0 renal, in the test on CAKI-1 renal, in the test with CCRF-CEM leukemia, in the test with HS 578T breast, in the test with IGROV1 ovarian and in the test on MALME-3M melanoma was greater than 100 µM throughout. The TGI with MCF7 breast, in the test on MDA-MB-231 breast, with MOLT-4 leukemia, with NCI-H522 lung, in the test with OVCAR-3 ovarian and with OVCAR-5 ovarian was greater than 100 µM throughout. Further, the TGI with OVCAR-8 ovarian, with PC-3 prostate, in the test on SF-539 CNS, in the test with SK-MEL-28 melanoma, in the test with U251 CNS and with UO-31 renal was greater than 100 µM throughout.
In the case of `CCOP(=O)(OCC)C(c1ccc(F)cc1)N(C(=O)NC(F)(F)F)c1ccc(OC)cc1` (configuration not stated), the TGI in the test on 786-0 renal, with CAKI-1 renal, in the test with CCRF-CEM leukemia, in the test with HS 578T breast, in the test on IGROV1 ovarian and with MALME-3M melanoma was greater than 100 µM throughout. Further, the TGI with MCF7 breast, in the test with MDA-MB-231 breast, in the test with MOLT-4 leukemia, with NCI-H522 lung, in the test with OVCAR-3 ovarian and with OVCAR-5 ovarian was greater than 100 µM each time. The TGI in the test with OVCAR-8 ovarian, in the test on SF-539 CNS, with SK-MEL-28 melanoma, with SR leukemia, in the test with U251 CNS and with UO-31 renal was greater than 100 µM each time.
As for `COc1ccc(C2=N/C(=C\c3ccccc3)C(=O)O2)cc1`, the TGI in the test with CCRF-CEM leukemia was greater than 100 µM; in the test on HS 578T breast, greater than 100 µM; with IGROV1 ovarian it was greater than 100 µM; in the test with MCF7 breast it was greater than 100 µM; in the test with MOLT-4 leukemia it was 52.6 µM; in the test on OVCAR-3 ovarian, greater than 100 µM. The TGI in the test with OVCAR-5 ovarian is greater than 100 µM; in the test with OVCAR-8 ovarian it was greater than 100 µM; in the test on PC-3 prostate, greater than 100 µM; in the test on SF-539 CNS, greater than 100 µM; with SK-MEL-28 melanoma, greater than 100 µM; in the test with SR leukemia, 57.5 µM. The molecule also came in with a TGI in the test with U251 CNS greater than 100 µM.
On to `O=C1c2ccccc2-c2c1c(-c1ccc(F)cc1)nc1ccc3ccccc3c21`, for which the TGI in the test with 786-0 renal, with CAKI-1 renal, in the test on CCRF-CEM leukemia, in the test with HS 578T breast, in the test with MALME-3M melanoma and in the test with MCF7 breast was greater than 100 µM each time. Further, the TGI in the test on MDA-MB-231 breast, with MOLT-4 leukemia, in the test on OVCAR-3 ovarian, in the test with OVCAR-5 ovarian, in the test with OVCAR-8 ovarian and in the test with PC-3 prostate was greater than 100 µM each time. Further, the TGI in the test on SF-539 CNS, with SK-MEL-28 melanoma, with U251 CNS and with UO-31 renal was greater than 100 µM throughout.
As to `COc1cc(/C=C/C(=O)CC(=O)/C=C/c2ccc(OC(=O)CCCCC3CCSS3)c(OC)c2)ccc1OC(=O)CCCCC1CCSS1` (configuration not stated), the TGI in the test on 786-0 renal, with CCRF-CEM leukemia, with HS 578T breast, in the test on IGROV1 ovarian, in the test with MALME-3M melanoma and in the test on MCF7 breast was greater than 100 µM throughout. Further, the TGI with MDA-MB-231 breast, in the test on MOLT-4 leukemia, in the test on NCI-H522 lung, in the test with OVCAR-3 ovarian, with OVCAR-5 ovarian and with OVCAR-8 ovarian was greater than 100 µM in each case. For the same molecule, the TGI in the test with PC-3 prostate, with SF-539 CNS, in the test on SK-MEL-28 melanoma, with U251 CNS and in the test on UO-31 renal was greater than 100 µM in each case.
For `CCOC(=O)c1cn2c(nc1=O)N[C@H]1CCCC[C@@H]12`, the TGI in the test on 786-0 renal, with CAKI-1 renal, in the test on CCRF-CEM leukemia, in the test on HS 578T breast, in the test with IGROV1 ovarian and in the test on MALME-3M melanoma was greater than 100 µM each time. Moreover, the TGI with MCF7 breast, in the test on MDA-MB-231 breast, in the test with MOLT-4 leukemia, in the test with NCI-H522 lung, with OVCAR-3 ovarian and with OVCAR-5 ovarian was greater than 100 µM each time. Also, the TGI in the test with OVCAR-8 ovarian, with PC-3 prostate, in the test on SF-539 CNS, in the test on SK-MEL-28 melanoma, in the test on U251 CNS and with UO-31 renal was greater than 100 µM in each case.
Regarding `O=C(CC(C(=O)c1ccsc1)c1ccc2c(c1)OCO2)c1ccccc1` (configuration not stated), the TGI in the test on 786-0 renal, with CAKI-1 renal, in the test on CCRF-CEM leukemia, with HS 578T breast, with IGROV1 ovarian and in the test on MCF7 breast was greater than 100 µM in each case. Moreover, the TGI with MOLT-4 leukemia, in the test with NCI-H522 lung, with OVCAR-3 ovarian, in the test with OVCAR-5 ovarian, with OVCAR-8 ovarian and in the test on SF-539 CNS was greater than 100 µM each time. Moreover, the TGI in the test on SK-MEL-28 melanoma, in the test on SR leukemia, with U251 CNS and in the test with UO-31 renal was greater than 100 µM throughout.

These data come from PubChem BioAssay (NCI).
